Test results published in US20120059021A1, “COMPOSITIONS AND METHODS FOR TREATING CANCER AND METHODS FOR PREDICTING A RESPONSE TO SUCH TREATMENTS” (UNIVERSITY OF WASHINGTON, priority 2008, published 2012).

How the values were obtained:
BAD and Bim (BCL2L11) = assay: Immunoblot of BH3-only proteins BAD and Bim in A375 cells; type: cell-based, human
ERK1/2 phosphorylation = ERK1/2 phosphorylation in human epidermal melanocytes; type: cell-based; conditions: HEMs
Source text: Cell Lines. The human melanoma cell lines A375, A2058 and Me1624 were obtained from Cassian Yee (Fred Hutchinson Cancer Research Institute; Seattle, Wash.). The human melanoma cell lines COLO-829, SKMEL28, SKMEL5 were purchased from ATCC (Manassas, Va.). Human Epidermal Melanocytes, adult, lightly pigmented donor, (HEMa-LP) (C0245C) were purchased from Invitrogen (Carlsbad, Calif.). Stable BAR cell lines were generated as previously described (23). BAR luciferase cell lines were also infected with a lentivirus carrying Renilla luciferase driven by a constitutive EFlalpha promoter.
Cell Culture. The human melanoma lines A375, A2058 were cultured in DMEM supplemented with 5% FBS and 1% antibiotic. The human melanoma lines SK-MEL-5 and SK-MEL-28 were grown in EMEM supplemented with 10% FBS and 1% antibiotic. The human melanoma lines COLO-829 and MEL-624 were grown in RPMI supplemented with 10% FBS and 1% antibiotic HEMa-LP cells were cultured in medium 254 supplemented with 1% HMGS and 1% antibiotic (Invitrogen Carlsbad, Calif.). Synthetic siRNAs were transfected into cultured cells at a final concentration of 20 nM using RNAiMAX (Invitrogen; Grand Island, N.Y.).

GSK3β = assay: Immunoblot for activating auto-phosphorylation of GSK3β in A375 cells; type: cell-based, human
[1] = test system: human A375 melanoma cells grown as xenografts; assay: Xenograft assay, A375:GFP or A375:WNT3A tumors in NSG mice; type: in vivo, mouse; conditions: 50 mg/kg PLX4720 oral gavage once daily
Description: Xenograft assays. NSG (NOD/SCID/IL2r-gamma (null)) mice were injected with 5×10^5 A375 cells stably expressing GFP or 5×10^5 A375 cells stably expressing WNT3A-IRES-GFP. Tumors were allowed to establish to approximately 100 mm^3, after which mice where tumor size-matched and allocated to five per treatment group (vehicle or PLX4720). WNT3A-IRES-GFP tumors grew slower and therefore the first day of treatment was day 14 while GFP expressing tumors were first treated on day 9. Treatment was by oral gavage once daily with 5% DMSO in 1% carboxymethyl cellulose or 50 mg/kg PLX4720 in 1% carboxymethyl cellulose (604 mM PLX4720 in DMSO was diluted 1:20 in 1% carboxymethylcellulose). Tumor size was determined by caliper measurements of tumor length and width every 3 to 4 days. Tumor volume was then calculated using the following formula: volume=(width)^2×length/2. Tumors were harvested 2 hours after the last dose and fixed in neutral-buffered formalin overnight at room temperature.

COLO829 [2] = assay: qPCR of endogenous Wnt target gene AXIN2, COLO829; type: cell-based, human; conditions: WNT3A CM, 2 μM PLX4720, 24 hours
Source text: RNA purification and qRT-PCR analysis. RNA was purified using the RNeasy kit following the manufacturer's protocol (Qiagen; Maryland, Md.). cDNA was synthesized using RevertAid™ M-MuLV Reverse Transcriptase (Fermentas; Ontario, CAN). Light Cycler FastStart DNA Master SYBR Green1 (Roche; Mannheim, Germany) was used for real-time PCR as previously described (53). Quantitative PCR results presented in the manuscript are averages of a minimum of three biologic replicates.

COLO829 [3] = assay: Flow cytometry for active (cleaved) caspase-3, COLO829; type: cell-based, human; conditions: WNT3A, 2 μM PLX4720, 24 hours
Description: (§1) Flow cytometry for Active Caspase-3. Cells were seeded in a 6-well dish at a density to achieve 90-100% confluence at harvest. 24 hours after seeding, cells were treated with the indicated conditions for the indicated amount of time. At the time of collection, supernatants were collected and pooled with trypsinized cells. Cells were fixed with 4% paraformaldehyde and permeabilized according to vendor's protocol for Cleaved Caspase-3 (Asp175) Antibody (AlexaFluor 488 Conjugate) (catalog #9669) (Cell Signaling, Beverly Mass.). The antibody was used at a final dilution of 1:100. Flow was performed on a BD FACSCanto H, and data analysed with FlowJo 8.8.6 (Tree Star) software. Experiments were performed with biological triplicates and data are representative of at least three independent experiments. For experiments involving siRNAs, cells were reverse transfected with 20 nM siRNA in 6-well dishes in triplicate with RNAiMax according to manufacturer's protocol. 48 hours following transfection, cells were treated with the indicated conditions for 24 hours and then harvested for analysis. Cells were harvested, stained, and analyzed as described above.

MEL624 = assay: Flow cytometry for active (cleaved) caspase-3, MEL624; type: cell-based, human; conditions: WNT3A, 2 μM PLX4720, 24 hours
Description: as §1

ppERK1/2 [4] = assay: Capillary-based isoelectric focusing of ppERK1/2 in fine needle aspirates of xenograft tumors; type: in vivo, mouse; conditions: two hours after initial 50 mg/kg PLX4720 vs baseline
Description: FIG. 10A depicts a schematic representation of the capillary-based isoelectric focusing method of detecting levels of ppERK1/2 in fine needle aspirates of xenograft tumors from vehicle or PLX4720 treated mice (top panel). Fine needle aspiration procedures (FNA) were performed on xenograft tumors three days prior to treatment for baseline samples and 2 hours after the initial oral gavage treatment of 50 mg/kg PLX4720. FNAs were analyzed for ppERK1/2 and HSP70 for normalization by capillary-based isoelectric focusing on a Nanopro1000 instrument (Cell Biosciences)(bottom panel). […] FNAs of xenograft tumors three days before treatment (baseline) or two hours following the initial treatment of 50 mg/kg PLX4720 were analyzed for ppERK1/2 and normalized to levels of HSP70. Columns and error bars represent the mean and standard deviation, respectively, from three xenograft tumors. […] FIG. 10D is a graph of results from an experiment in which xenograft tumors from FIG. 2A were sectioned, stained with hematoxylin- and eosin, and analyzed for mitotic cells by microscopy under high-power as described elsewhere herein. […]
Xenograft assays. […] Tumor size was determined by caliper measurements of tumor length and width every 3 to 4 days. Tumor volume was then calculated using the following formula: volume=(width)^2×length/2. […]

ppERK1/2 [5] = assay: Immunoblot for dual-phosphorylated ERK1/2 in melanoma cells; type: cell-based, human
Source text: By way of non-limiting example, inhibition of ERK signaling can be measured by determining the level of dual-phosphorylated ERK1/2 (ppERK1/2) as described in detail elsewhere herein. In brief, the level of ppERK1/2 can be detected by immunoblot assay.

For `CCCS(=O)(=O)Nc1ccc(F)c(C(=O)c2c[nH]c3ncc(Cl)cc23)c1F` [PLX4720, N-[3-[(5-Chloro-1H-pyrrolo[2,3-b]pyridin-3-yl)carbonyl]-2,4-difluorophenyl]-1-propanesulfonamide], the “phosphorylation of BimEL” value (BAD and Bim (BCL2L11); A375, 2 μM PLX4720, 24 hours) was “decreased phosphorylation of the largest Bim isoform, BimEL”, the “phosphorylation of Ser75 on BAD” value (BAD and Bim (BCL2L11); A375, 24 hours) was “decreased Ser75 phosphorylation” and the “BimL and BimS levels” value (BAD and Bim (BCL2L11); A375, combination of WNT3A and PLX4720, 24 hours) was “marked increase in BimL and BimS”. For the same compound, the ERK1/2 phosphorylation (ERK1/2 phosphorylation) was “no effect”, the “activating auto-phosphorylation of GSK3B” value (GSK3β) was “lost” and the tumor growth ([1]; A375:GFP tumors) was “decreased tumor growth compared to drug vehicle”. The tumor growth ([1]; A375:WNT3A tumors, over four weeks) was “near complete suppression”, the “SYNERGISTIC WNT ACTIVATION WITH PLX4720?” value (COLO829 [2]) was “YES” and the “SYNERGISTIC APOPTOSIS WITH WNT AND PLX4720?” value (COLO829 [3]) was “YES”. The “SYNERGISTIC APOPTOSIS WITH WNT AND PLX4720?” value (MEL624) was “YES”, the “ppERK2 in xenograft tumors (normalized to HSP70)” value (ppERK1/2 [4]) was “significantly less ppERK2” and the “dual-phosphorylated ERK1/2 (ppERK1/2)” value (ppERK1/2 [5]; A375) was “dose-dependent inhibition”. For the same compound, the “time to inhibition of ppERK” value (ppERK1/2 [5]; A375, WNT3A and PLX4720 time course) was at most 30 min and the ERK1/2 phosphorylation (ppERK1/2 [5]; six established melanoma lines harboring the BRAF^V600E mutation) was “inhibition of ERK1/2 phosphorylation”.
